Among the test systems are LXFL 529 NSCLC; M19-MEL melanoma; KM20L2 colon; XF 498 CNS; DMS 273 small cell lung; SNB-78 CNS; DMS 114 small cell lung; MDA-N.
Common to all, as to assay: DTP human tumour cell line panel, 48 h

The structures appear in SMILES notation.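 Each compound was tested at five concentrations against cells in 96-well plates for 48 hours. GI50: concentration for 50% inhibition of growth. TGI denotes the concentration required for complete inhibition of growth.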

On to `O=C(/C(=C/c1ccccc1)c1ccccc1)N1c2ccccc2CC1c1c[nH]c2ccccc12` (stereo not given), for which the total growth inhibition concentration (TGI) in the experiment with LXFL 529 NSCLC was > 100 µM; with M19-MEL melanoma it was > 100 µM; in the experiment with KM20L2 colon, > 100 µM; in the experiment on XF 498 CNS, 8.95 µM; in the experiment with DMS 273 small cell lung, > 100 µM; in the experiment with SNB-78 CNS it was > 100 µM. In the experiment on DMS 114 small cell lung, the TGI is > 100 µM.
Turning to `COc1ccc2c(c1)OCCC1=C2SCC2(C)CCN=C12` (stereo not given), the concentration for total growth inhibition (TGI) with LXFL 529 NSCLC, in the experiment on KM20L2 colon, with XF 498 CNS, with DMS 273 small cell lung, in the experiment with SNB-78 CNS and in the experiment with DMS 114 small cell lung was > 100 µM in each case.
As for `C#CCN(C)C(=O)N(CC#C)N=O`, the TGI with LXFL 529 NSCLC, in the experiment on M19-MEL melanoma, with KM20L2 colon, in the experiment on DMS 273 small cell lung, in the experiment with SNB-78 CNS and in the experiment on DMS 114 small cell lung was > 100 µM in each case.
Regarding `CN(C)CCNc1nc(-c2cccs2)cc(-c2cccs2)n1`, the TGI in the experiment with LXFL 529 NSCLC came to 28.1 µM; in the experiment with XF 498 CNS, 12.1 µM; with DMS 273 small cell lung it was 24.4 µM; in the experiment with SNB-78 CNS, 34.1 µM; in the experiment with DMS 114 small cell lung, 33.6 µM.
Regarding `NS(=O)(=O)c1ccc(NC(=O)COC(=O)c2cccc3c(=O)c4ccccc4[nH]c23)cc1`, the TGI was 20.9 µM with LXFL 529 NSCLC; > 100 µM in the experiment on M19-MEL melanoma; > 100 µM in the experiment on KM20L2 colon; > 95.1 µM with DMS 273 small cell lung; 44.5 µM in the experiment with SNB-78 CNS; 52.3 µM in the experiment with DMS 114 small cell lung.
On to `COc1ccc(NC(=O)/C=C(C)/C=C/C=C(C)\C=C\C2=C(C)CCCC2(C)C)cc1`, for which, in the experiment on MDA-N, the GI50 was 55.3 µM and the TGI was > 100 µM.
Turning to `C1CC[N-]CC1.CC(=N\O)/C(C)=N/O.CC(=N\O)/C(C)=N/O.[CH2-]CCN1CCOCC1.[Co+2]`, in the experiment with MDA-N, the GI50 was > 100 µM and the TGI was > 100 µM.
`COc1ccc(C2=NOP(c3ccccc3)(c3ccccc3)(c3ccccc3)C2)cc1`: the TGI in the experiment on LXFL 529 NSCLC is > 56.7 µM; in the experiment with M19-MEL melanoma, 57.7 µM; in the experiment with KM20L2 colon it was > 76.2 µM; with XF 498 CNS it was 49.7 µM; in the experiment with DMS 273 small cell lung, > 47.6 µM; in the experiment with SNB-78 CNS it was > 100 µM. In addition, the TGI in the experiment with DMS 114 small cell lung stood at 26.2 µM.
In the case of `COc1ccc2nc3cccc(C(=O)NCCN(C)C)c3nc2c1`, the total growth inhibition concentration (TGI) in the experiment with M19-MEL melanoma was 3.5 µM; in the experiment with KM20L2 colon, 6.46 µM; in the experiment with XF 498 CNS, 0.696 µM; in the experiment on DMS 273 small cell lung, > 100 µM; in the experiment with SNB-78 CNS, 9.01 µM; in the experiment on DMS 114 small cell lung, 3.45 µM.
On to `N#Cc1c2c(c(-c3cccs3)n(C3OC(CO)C(O)C(O)C3O)c1=S)CCc1ccccc1-2` (stereo not given), for which, in the experiment with MDA-N, the TGI was > 100 µM.
Turning to `C[n+]1c(N)n(C(=O)OCc2ccccc2)c(=O)c2c1ncn2C(=O)OCc1ccccc1`, the total growth inhibition concentration (TGI) in the experiment with LXFL 529 NSCLC, in the experiment on M19-MEL melanoma, in the experiment on KM20L2 colon, in the experiment on DMS 273 small cell lung, with SNB-78 CNS and in the experiment on DMS 114 small cell lung was > 100 µM in each case.
Consider `CC1=C(C(=O)Nc2ccccc2)C(c2ccc(C(C)C)cc2)C(C(=O)Nc2ccccc2)=C(C)N1`, for which the TGI is > 67.7 µM in the experiment on LXFL 529 NSCLC; 35.6 µM in the experiment on M19-MEL melanoma; 31.7 µM in the experiment with KM20L2 colon; 27 µM in the experiment with XF 498 CNS; > 100 µM in the experiment on SNB-78 CNS; 47.5 µM in the experiment with DMS 114 small cell lung.
As to `Cc1ccc(NC(=O)CCC(=O)C(C#N)c2ccccc2)cc1C` (stereo not given), the total growth inhibition concentration (TGI) in the experiment on LXFL 529 NSCLC, in the experiment on KM20L2 colon, in the experiment on XF 498 CNS, in the experiment on DMS 273 small cell lung, in the experiment with SNB-78 CNS and with DMS 114 small cell lung was > 100 µM throughout.
Take `CC(=O)O[C@H]1C=CC23OC(=O)[C@]1(C)[C@H]2[C@H](C(=O)O)C12CC(=O)[C@@](CO)(CC[C@H]13)C2`: the TGI in the experiment with LXFL 529 NSCLC, in the experiment on M19-MEL melanoma, in the experiment with KM20L2 colon, with XF 498 CNS, in the experiment on DMS 273 small cell lung and in the experiment on SNB-78 CNS was > 100 µM in each case.
As for `O=C(c1ccccc1)C1C(C(=O)c2ccccc2)C(c2ccccc2)N(c2ccccc2)C1c1ccccc1` (stereo not given), in the experiment on MDA-N, the total growth inhibition concentration (TGI) is > 100 µM.
Regarding `NCP(=O)(O)OCC(=O)O`, the TGI in the experiment on LXFL 529 NSCLC, in the experiment on XF 498 CNS, in the experiment on DMS 273 small cell lung, in the experiment on SNB-78 CNS and in the experiment on DMS 114 small cell lung was > 100 µM in each case.
As to `N=C(N)SCCc1ccccn1`, the TGI with MDA-N was > 100 µM.
As to `COc1cc(C2c3cc4c(cc3[C@@H](Nc3ccc(N)cc3)C3COC(=O)[C@H]23)OCO4)cc(OC)c1O` (stereo not given in full), the TGI in the experiment with LXFL 529 NSCLC came out at 31 µM; with M19-MEL melanoma, 23.7 µM; in the experiment with KM20L2 colon, 21.4 µM; with XF 498 CNS it was 13.6 µM; in the experiment with MDA-N, 18.4 µM; in the experiment with DMS 273 small cell lung, 5.39 µM. The total growth inhibition concentration (TGI) in the experiment on SNB-78 CNS was 60.5 µM; in the experiment on DMS 114 small cell lung it was 8.77 µM. The results for the GI50 in the experiment with M19-MEL melanoma, in the experiment on XF 498 CNS and in the experiment on DMS 114 small cell lung were 0.99 µM, 0.716 µM and 0.911 µM, respectively.
As for `Cn1cc(NC(=O)c2cc(NC(=O)CCCCCCC(=O)Nc3cc(C(=O)Nc4cc(C(=O)NCCC(=N)N)n(C)c4)n(C)c3)cn2C)cc1C(=O)NCCC(=N)N`, the TGI is 38.4 µM in the experiment with LXFL 529 NSCLC; 8.89 µM in the experiment with M19-MEL melanoma; > 100 µM in the experiment with KM20L2 colon; 83 µM in the experiment with XF 498 CNS; 12.7 µM in the experiment with DMS 273 small cell lung; 69.5 µM with SNB-78 CNS. In the experiment with DMS 114 small cell lung, the TGI was determined as 5.44 µM.
Turning to `Nc1ccc(C(=O)N/C(=C\c2cccc([N+](=O)[O-])c2)c2nc3c4c(ccc3[nH]2)C(=O)c2ccccc2C4=O)cc1`, the TGI in the experiment on LXFL 529 NSCLC, in the experiment with M19-MEL melanoma, in the experiment with KM20L2 colon, in the experiment with XF 498 CNS, with DMS 273 small cell lung and with SNB-78 CNS was > 100 µM in each case. In addition, the TGI in the experiment with DMS 114 small cell lung is > 100 µM.
As for `CN(C)CC1CCCC/C1=N/OC(=O)c1ccc(Cl)c(Cl)c1` (stereo not given), the concentration for total growth inhibition (TGI) with LXFL 529 NSCLC, in the experiment on M19-MEL melanoma, with KM20L2 colon, in the experiment with DMS 273 small cell lung and with DMS 114 small cell lung was > 100 µM each time.
With `COC(=O)C1CC(C(=O)OC)c2nc3cc(C)c(C)cc3nc21` (stereo not given), the TGI with LXFL 529 NSCLC, with M19-MEL melanoma, in the experiment on KM20L2 colon, in the experiment with XF 498 CNS, with DMS 273 small cell lung and in the experiment with SNB-78 CNS was > 100 µM each time. The TGI in the experiment with DMS 114 small cell lung is > 100 µM.
For the compound `COc1ccc(/C=N/N=C(\[O-])c2ccncc2)cc1F.COc1ccc(/C=N\N=C(/[O-])c2ccncc2)cc1F.[Cu+2]`, in the experiment with MDA-N, the GI50 is 32.7 µM and the total growth inhibition concentration (TGI) is > 100 µM.
`O=C(Nc1cccc(C(F)(F)F)c1)c1cc(Br)cc(Br)c1O`: the concentration for total growth inhibition (TGI) in the experiment with MDA-N was > 10 µM.
Same read-out and setting: for `NS(=O)(=O)c1ccc(NC(=O)Nc2ccccc2F)cc1` the value was > 100 µM.
Regarding `COc1ccc(C(=O)O/N=C2/CCC/C2=C\c2ccccc2)cc1`, the TGI in the experiment on LXFL 529 NSCLC, in the experiment on M19-MEL melanoma, with KM20L2 colon, in the experiment with XF 498 CNS, in the experiment on DMS 273 small cell lung and with SNB-78 CNS was > 100 µM each time. The TGI with DMS 114 small cell lung is > 100 µM.
In the case of `O=C1c2ccccc2-c2c1c1ccccc1c(=O)n2-c1ccccc1`, the total growth inhibition concentration (TGI) with MDA-N is > 100 µM.
On to `Cc1cc(O)cc2c1c(=O)c1ccccc1n2C`, for which the TGI in the experiment with MDA-N is > 100 µM.
In the case of `C1C[OH+]CC[OH+]CC[OH+]CC[OH+]CC[OH+]CC[OH+]1.[Cl-].[Nb+5]`, in the experiment on KM20L2 colon, the GI50 is > 100 µM and the TGI is > 100 µM.
Regarding `COC(=O)Cc1nc2ccccc2o1`, the TGI in the experiment with LXFL 529 NSCLC was > 100 µM; with M19-MEL melanoma it was > 100 µM; in the experiment with KM20L2 colon, 46.4 µM; in the experiment on XF 498 CNS it was > 100 µM; with DMS 273 small cell lung, > 100 µM; in the experiment on SNB-78 CNS, > 100 µM. The total growth inhibition concentration (TGI) with DMS 114 small cell lung was > 100 µM.
Take `Nc1nc(N)c(-c2ccccc2)c(CCC(=O)Nc2ccc(Cl)cc2)n1`: the concentration for total growth inhibition (TGI) in the experiment with LXFL 529 NSCLC, in the experiment on M19-MEL melanoma, in the experiment on KM20L2 colon, with DMS 273 small cell lung and with SNB-78 CNS was > 100 µM in each case.
As to `OCC(O)C(OC1OC(CO)C(O)C(O)C1O)c1nn(-c2ccccc2)c2nc3cc(Cl)ccc3nc12` (stereo not given), the concentration for total growth inhibition (TGI) with LXFL 529 NSCLC, with M19-MEL melanoma, in the experiment on KM20L2 colon, with XF 498 CNS, in the experiment on SNB-78 CNS and with DMS 114 small cell lung was > 100 µM each time.
Regarding `CCOC(=O)/N=c1/nc(N(C)C)ss1`, the TGI in the experiment with LXFL 529 NSCLC, in the experiment on KM20L2 colon, with XF 498 CNS, with DMS 273 small cell lung, in the experiment with SNB-78 CNS and in the experiment on DMS 114 small cell lung was > 100 µM throughout.

The values above are taken from PubChem BioAssay (NCI).
